# Laboratory results: ChEMBL document CHEMBL1131345, “Synthesis of N-(1-ethyl-4-methylhexahydro-1,4-diazepin-6-yl)nicotinamides and their affinities for 5-HT3 and dopamine D2 receptors” (Bioorg Med Chem Lett, 1998)
# What was measured:
# [1] = target: T1, Serotonin 3 (5-HT3) receptor (Rattus norvegicus, UniProt P35563+Q9JJ16); assay: Inhibition of [3H]GR-65630 binding to rat cortical membrane 5-hydroxytryptamine 3 receptor
# T1 sequence (P35563 whole entry): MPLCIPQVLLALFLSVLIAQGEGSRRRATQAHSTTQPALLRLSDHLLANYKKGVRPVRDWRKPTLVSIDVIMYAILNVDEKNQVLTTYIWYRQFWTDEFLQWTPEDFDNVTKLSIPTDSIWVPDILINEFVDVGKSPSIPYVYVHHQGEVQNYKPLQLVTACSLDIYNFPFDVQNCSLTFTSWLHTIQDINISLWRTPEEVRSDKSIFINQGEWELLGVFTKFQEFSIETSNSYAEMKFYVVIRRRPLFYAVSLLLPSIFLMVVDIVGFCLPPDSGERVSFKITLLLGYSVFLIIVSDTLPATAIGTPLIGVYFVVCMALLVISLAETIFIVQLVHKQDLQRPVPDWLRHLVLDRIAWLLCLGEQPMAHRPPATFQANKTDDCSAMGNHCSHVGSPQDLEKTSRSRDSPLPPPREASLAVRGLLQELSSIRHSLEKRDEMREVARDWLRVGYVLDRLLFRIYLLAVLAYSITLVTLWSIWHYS
# T1 sequence (Q9JJ16 whole entry): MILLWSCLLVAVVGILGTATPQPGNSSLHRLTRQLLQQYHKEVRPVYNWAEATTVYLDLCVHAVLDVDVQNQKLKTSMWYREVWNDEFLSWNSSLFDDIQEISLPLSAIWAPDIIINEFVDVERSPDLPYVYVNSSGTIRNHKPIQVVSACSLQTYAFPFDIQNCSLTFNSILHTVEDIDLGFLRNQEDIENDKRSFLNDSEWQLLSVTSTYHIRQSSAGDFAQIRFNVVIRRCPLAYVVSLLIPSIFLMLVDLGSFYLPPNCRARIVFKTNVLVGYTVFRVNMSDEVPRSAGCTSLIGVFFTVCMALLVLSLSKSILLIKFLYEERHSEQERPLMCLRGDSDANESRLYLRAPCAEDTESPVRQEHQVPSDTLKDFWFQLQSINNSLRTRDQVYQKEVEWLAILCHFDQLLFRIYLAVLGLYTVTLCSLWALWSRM
# D(2) dopamine receptor = D(2) dopamine receptor (Rattus norvegicus, UniProt P61169); assay: Inhibition of [3H]- spiperone binding to rat brain Dopamine receptor D2
# Chain of D(2) dopamine receptor (P61169 whole entry): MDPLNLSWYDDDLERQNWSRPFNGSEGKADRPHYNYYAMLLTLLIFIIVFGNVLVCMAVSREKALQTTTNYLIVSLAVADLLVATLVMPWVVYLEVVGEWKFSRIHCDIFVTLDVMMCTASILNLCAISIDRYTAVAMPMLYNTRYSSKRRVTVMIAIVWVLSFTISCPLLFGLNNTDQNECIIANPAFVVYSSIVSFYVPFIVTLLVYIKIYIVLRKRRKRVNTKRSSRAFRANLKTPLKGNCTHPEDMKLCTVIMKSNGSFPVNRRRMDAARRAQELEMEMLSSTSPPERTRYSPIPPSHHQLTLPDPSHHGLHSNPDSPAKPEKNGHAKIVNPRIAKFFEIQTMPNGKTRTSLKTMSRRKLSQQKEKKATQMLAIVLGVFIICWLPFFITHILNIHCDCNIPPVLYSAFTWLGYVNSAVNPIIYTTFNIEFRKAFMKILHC
SMILES,IC50 [1],IC50 (D(2) dopamine receptor)
CCN1CCN(C)CC(NC(=O)c2cc(Br)c(NC)nc2OC)C1 (stereo not drawn),0.001 µM,0.023 µM
CCN(CC)CCNC(=O)c1cc(Cl)c(N)cc1OC [METOCLOPRAMIDE],0.88 µM,–
CCNc1nc(OC)c(C(=O)NC2CN(C)CCN(CC)C2)cc1Br (stereo not drawn),0.0038 µM,0.048 µM
CCN1CCN(C)C[C@@H](NC(=O)c2cc(Cl)c(NC)nc2OC)C1,0.0016 µM,0.018 µM
CCN1CCN(C)C[C@H](NC(=O)c2cc(Br)c(NC)nc2OC)C1,0.0012 µM,0.081 µM
CCN1CCN(C)CC(NC(=O)c2cc(Cl)c(N)nc2OC)C1 (stereo not drawn),0.0051 µM,0.386 µM
CCN1CCN(C)CC(NC(=O)c2cc(Br)c(N(C)C)nc2OC)C1 (stereo not drawn),0.0099 µM,0.075 µM
CCN1CCN(C)C[C@@H](NC(=O)c2cc(Br)c(NC)nc2OC)C1,0.0011 µM,0.012 µM
CCNc1nc(OC)c(C(=O)NC2CN(C)CCN(CC)C2)cc1Cl (stereo not drawn),0.002 µM,0.076 µM
CCN1CCN(C)CC(NC(=O)c2cc(Cl)c(NC)nc2OC)C1 (stereo not drawn),0.0013 µM,0.043 µM
CCN1CCN(C)C[C@H](NC(=O)c2cc(Cl)c(NC)nc2OC)C1,0.0021 µM,0.202 µM
CCN1CCN(C)C[C@@H](NC(=O)c2cc(Cl)c(NC)cc2OC)C1,0.0029 µM,0.035 µM
